Earlier results on three compounds are cited in patent publication EP4623708A1, “SWEETENER COMPOSITION FOR POUCHED ORAL PRODUCTS” (Nicoventures Trading Limited, priority 2024, dated 2025).

For data set [1] the following is noted: relative to sugar.

As to `CC(/C=C/C=C(C)/C=C/C(=O)O)=C\C=C\C=C(C)\C=C\C=C(C)\C=C\C(=O)O` (stereo in doubt) [norbixin, (2E,4E,6E,8E,10E,12E,14E,16E,18E)-4,8,13,17-tetramethylicosa-2,4,6,8,10,12,14,16,18-nonaenedioic acid], the solubility in water result is “water-soluble”.

For the compound `COC(=O)/C=C/C(C)=C\C=C\C(C)=C\C=C\C=C(C)\C=C\C=C(C)\C=C\C(=O)O` [bixin, (2E,4E,6E,8E,10E,12E,14E,16Z,18E)-20-methoxy-4,8,13,17-tetramethyl-20-oxoicosa-2,4,6,8,10,12,14,16,18-nonaenoic acid], the solubility in water entry is listed as “insoluble in water”.

Regarding `OC[C@H]1O[C@H](O[C@]2(CCl)O[C@H](CCl)[C@@H](O)[C@@H]2O)[C@H](O)[C@@H](O)[C@H]1Cl` [Sucralose, trichlorogalatosucrose], the “times sweeter than sugar” value in data set [1] is listed as “about 600 times”.
